Results as given in patent US20100105729A1, “ARYL-SUBSTITUTED HETEROCYCLIC PDE4 INHIBITORS AS ANTI-INFLAMMATORY AGENTS” (KALYPSYS, INC., priority 2006, published 2010).

molecular target: T1, PDE4B (Homo sapiens, UniProt Q07343); assay: PDE4 IMAP Assay; format: biochemical; conditions: catalytic domain of PDE4B, fluorescence polarization
T1 construct: hexa-histidine (His6) (N); made in house
Text: Compounds may be screened for functional potency in in vitro biochemical assays for their ability to inhibit the activity of phosphodiesterase (PDE) enzymes. A commercial PDE assay, Molecular Device's PDE IMAP assay, was modified and utilized to measure the inhibitory activity of compounds on PDE isoforms. The IMAP technology is based on the high affinity binding of phosphate by immobilized metal (MIII) coordination complexes on nanoparticles. This IMAP “binding reagent” complexes with phosphate groups on the nucleotide monophosphates generated in the reaction. Such binding causes a change in the rate of the molecular motion of the nucleotide, and results in an increase in the fluorescence polarization value observed for the fluorescent label attached to the substrate. PDE inhibitors prevent the generation of nucleotide monophosphates and the subsequent increase in polarization value observed for the fluorescent label attached to the substrate. The catalytic domain of PDE4B was fused to an amino-terminus hex-histadine affinity tag and purified. PDE4B enzyme was incubated with compounds for 10 minutes. Fluorescently labeled cyclic AMP substrates were then added to the PDE enzyme mix and incubated for 2 hours at room temperature. IMAP binding reagent was then added to the enzyme mix, incubated for 10-30 minutes and fluorescent polarization of the fluorescently labeled substrate was read either with the Perkin Elmer Viewlux or Molecular Devices Acquest or Analyst. Roflumilast and Rolipram are the positive controls used in the assay.

T1 sequence (Q07343 330-659 limits assumed, species assumed): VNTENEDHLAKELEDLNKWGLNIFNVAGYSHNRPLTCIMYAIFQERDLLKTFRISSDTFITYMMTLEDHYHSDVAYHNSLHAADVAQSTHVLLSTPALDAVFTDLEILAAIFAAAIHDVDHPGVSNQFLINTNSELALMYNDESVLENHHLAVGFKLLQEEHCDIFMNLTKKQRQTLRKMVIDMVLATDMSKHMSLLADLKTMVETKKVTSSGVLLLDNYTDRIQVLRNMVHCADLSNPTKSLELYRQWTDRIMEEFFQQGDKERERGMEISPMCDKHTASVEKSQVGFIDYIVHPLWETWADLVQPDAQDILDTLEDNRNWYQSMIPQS

| inhibition at 10 µM [%] | SMILES |
| --- | --- |
| < 50 | COc1cccc(C2CC(c3ccc(OC)c(OC)c3)=NN2S(C)(=O)=O)c1 (stereo not shown) [Example 4, 3-(3,4-dimethoxyphenyl)-5-(3-methoxyphenyl)-1-(methylsulfonyl)-4,5-dihydro-1H-pyrazole] |
| < 50 | COc1ccc(C2=NN(C(C)=O)C(c3cc4cccc(C)c4nc3Cl)C2)cc1OC (stereo not shown) [Example 76, 1-(5-(2-chloro-8-methylquinolin-3-yl)-3-(3,4-dimethoxyphenyl)-4,5-dihydro-1H-pyrazol-1-yl)ethanone] |
| < 50 | COc1ccc(C2=NN(C(=O)c3ccc(Br)o3)C(c3ccc(N(C)C)cc3)C2)cc1OC (stereo not shown) [Example 81, (5-bromofuran-2-yl)(3-(3,4-dimethoxyphenyl)-5-(4-(dimethylamino)phenyl)-4,5-dihydro-1H-pyrazol-1-yl)methanone] |
| ≥ 50 | COc1ccc(C2=NN(C(=O)c3ccc(Br)o3)C(c3ccccc3)C2)cc1OC (stereo not shown) [Example 51, (5-bromofuran-2-yl)(3-(3,4-dimethoxyphenyl)-5-phenyl-4,5-dihydro-1H-pyrazol-1-yl)methanone] |
| < 50 | COc1ccc(C2=NN(S(=O)(=O)c3ccc(C)cc3)C(c3cccc(OC)c3OC)C2)cc1OC (stereo not shown) [Example 91, 5-(2,3-dimethoxyphenyl)-3-(3,4-dimethoxyphenyl)-1-tosyl-4,5-dihydro-1H-pyrazole] |
| < 50 | CCc1ccc(C2CC(c3ccc(OC)c(OC)c3)=NN2C(=O)CCCC(=O)O)cc1 (stereo not shown) [Example 18, 5-(3-(3,4-dimethoxyphenyl)-5-(4-ethylphenyl)-4,5-dihydro-1H-pyrazol-1-yl)-5-oxopentanoic acid] |
| ≥ 50 | COc1ccc(C2CC(c3ccc(OC)c(OC)c3)=NN2C(=O)c2cccs2)cc1 (stereo not shown) [Example 41, (3-(3,4-dimethoxyphenyl)-5-(4-methoxyphenyl)-4,5-dihydro-1H-pyrazol-1-yl)(thiophen-2-yl)methanone] |
| < 50 | COc1ccc(C2=NN(S(=O)(=O)c3ccc(C)cc3)C(c3ccccc3Cl)C2)cc1OC (stereo not shown) [Example 60, 5-(2-chlorophenyl)-3-(3,4-dimethoxyphenyl)-1-tosyl-4,5-dihydro-1H-pyrazole] |
| < 50 | COc1ccc(C2=NN(C(C)=O)C(c3ccccc3)C2)cc1OC (stereo not shown) [Example 106, 1-(3-(3,4-dimethoxyphenyl)-5-phenyl-4,5-dihydro-1H-pyrazol-1-yl)ethanone] |
| < 50 | COc1ccc(C2=NN(S(=O)(=O)c3ccccc3)C(c3cccc(OC)c3OC)C2)cc1OC (stereo not shown) [Example 90, 5-(2,3-dimethoxyphenyl)-3-(3,4-dimethoxyphenyl)-1-(phenylsulfonyl)-4,5-dihydro-1H-pyrazole] |
| < 50 | COc1ccc(C2=NN(S(=O)(=O)c3ccccc3)C(c3cn(-c4ccccc4)nc3-c3ccccc3)C2)cc1OC (stereo not shown) [Example 25, 4-(3-(3,4-dimethoxyphenyl)-1-(phenylsulfonyl)-4,5-dihydro-1H-pyrazol-5-yl)-1,3-diphenyl-1H-pyrazole] |
| < 50 | COc1ccc(C2=NN(C(C)=O)C(c3ccccc3F)C2)cc1OC (stereo not shown) [Example 104, 1-(3-(3,4-dimethoxyphenyl)-5-(2-fluorophenyl)-4,5-dihydro-1H-pyrazol-1-yl)ethanone] |
| < 50 | COc1ccc(C2=NN(C(=O)CCC(=O)O)C(c3ccc(Cl)cc3)C2)cc1OC (stereo not shown) [Example 70, 4-(5-(4-chlorophenyl)-3-(3,4-dimethoxyphenyl)-4,5-dihydro-1H-pyrazol-1-yl)-4-oxobutanoic acid] |
| < 50 | COc1ccc(C2=NN(C(=O)CCC(=O)O)C(c3ccc(OC)c(OC)c3)C2)cc1OC (stereo not shown) [Example 68, 4-(3,5-bis(3,4-dimethoxyphenyl)-4,5-dihydro-1H-pyrazol-1-yl)-4-oxobutanoic acid] |
| ≥ 50 | COc1ccc(C2=NN(C(C)=O)C(c3ccc(F)cc3)C2)cc1OC (stereo not shown) [Example 102, 1-(3-(3,4-dimethoxyphenyl)-5-(4-fluorophenyl)-4,5-dihydro-1H-pyrazol-1-yl)ethanone] |
| < 50 | COc1ccc(C2=NN(C(=O)c3ccccc3Cl)C(c3cn(-c4ccccc4)nc3-c3ccccc3)C2)cc1OC (stereo not shown) [Example 26, (2-chlorophenyl)(3-(3,4-dimethoxyphenyl)-5-(1,3-diphenyl-1H-pyrazol-4-yl)-4,5-dihydro-1H-pyrazol-1-yl)methanone] |
| < 50 | COc1ccc(C2=NN(C(C)=O)C(c3cc4ccc(C)cc4nc3Cl)C2)cc1OC (stereo not shown) [Example 75, 1-(5-(2-chloro-7-methylquinolin-3-yl)-3-(3,4-dimethoxyphenyl)-4,5-dihydro-1H-pyrazol-1-yl)ethanone] |

| inhibition at 10 µM [%] | SMILES |
| --- | --- |
| < 50 | COc1ccc2cc(C3CC(c4ccc(OC)c(OC)c4)=NN3C(=O)CCC(=O)O)c(Cl)nc2c1 (stereo not shown) [Example 22, 4-(5-(2-chloro-7-methoxyquinolin-3-yl)-3-(3,4-dimethoxyphenyl)-4,5-dihydro-1H-pyrazol-1-yl)-4-oxobutanoic acid] |
| < 50 | COc1ccc(C2=NN(C(=O)CCC(=O)O)C(c3ccc(C)cc3)C2)cc1OC (stereo not shown) [Example 71, 4-(3-(3,4-dimethoxyphenyl)-5-p-tolyl-4,5-dihydro-1H-pyrazol-1-yl)-4-oxobutanoic acid] |
| < 50 | COc1ccc2cc(C3CC(c4ccc(OC)c(OC)c4)=NN3C(=O)c3ccccc3Cl)c(Cl)nc2c1 (stereo not shown) [Example 16, (5-(2-chloro-7-methoxyquinolin-3-yl)-3-(3,4-dimethoxyphenyl)-4,5-dihydro-1H-pyrazol-1-yl)(2-chlorophenyl)methanone] |
| < 50 | COc1ccc(C2=NN(S(=O)(=O)c3ccccc3)C(c3ccccc3Cl)C2)cc1OC (stereo not shown) [Example 59, 5-(2-chlorophenyl)-3-(3,4-dimethoxyphenyl)-1-(phenylsulfonyl)-4,5-dihydro-1H-pyrazole] |
| < 50 | COc1ccc(C2=NN(S(=O)(=O)c3ccc(C)cc3)C(c3ccccc3OC)C2)cc1OC (stereo not shown) [Example 93, 3-(3,4-dimethoxyphenyl)-5-(2-methoxyphenyl)-1-tosyl-4,5-dihydro-1H-pyrazole] |
| < 50 | COc1ccc(C2CC(c3ccc(OC)c(OC)c3)=NN2C(C)=O)cc1 (stereo not shown) [Example 103, 1-(3-(3,4-dimethoxyphenyl)-5-(4-methoxyphenyl)-4,5-dihydro-1H-pyrazol-1-yl)ethanone] |
| < 50 | COc1ccc(C2=NN(C(=O)CCC(=O)O)C(c3ccccc3OC)C2)cc1OC (stereo not shown) [Example 98, 4-(3-(3,4-dimethoxyphenyl)-5-(2-methoxyphenyl)-4,5-dihydro-1H-pyrazol-1-yl)-4-oxobutanoic acid] |
| ≥ 50 | COc1ccc(C2=NN(C(=O)c3cccs3)C(c3cccc(OC)c3OC)C2)cc1OC (stereo not shown) [Example 38, (5-(2,3-dimethoxyphenyl)-3-(3,4-dimethoxyphenyl)-4,5-dihydro-1H-pyrazol-1-yl)(thiophen-2-yl)methanone] |
| ≥ 50 | COc1ccc(C2=NN(C(=O)c3ccc(Br)o3)C(c3ccc(C)cc3)C2)cc1OC (stereo not shown) [Example 48, (5-bromofuran-2-yl)(3-(3,4-dimethoxyphenyl)-5-p-tolyl-4,5-dihydro-1H-pyrazol-1-yl)methanone] |
| < 50 | COc1ccc(C2=NN(C(=O)CCCC(=O)O)C(c3ccc(F)cc3)C2)cc1OC (stereo not shown) [Example 65, 5-(3-(3,4-dimethoxyphenyl)-5-(4-fluorophenyl)-4,5-dihydro-1H-pyrazol-1-yl)-5-oxopentanoic acid] |
| < 50 | COc1ccc(C2=NN(S(C)(=O)=O)C(c3ccccc3Cl)C2)cc1OC (stereo not shown) [Example 15, 5-(2-chlorophenyl)-3-(3,4-dimethoxyphenyl)-1-(methylsulfonyl)-4,5-dihydro-1H-pyrazole] |
| < 50 | COc1ccc2nc(Cl)c(C3CC(c4ccc(OC)c(OC)c4)=NN3C(=O)c3ccccc3)cc2c1 (stereo not shown) [Example 7, (5-(2-chloro-6-methoxyquinolin-3-yl)-3-(3,4-dimethoxyphenyl)-4,5-dihydro-1H-pyrazol-1-yl)(phenyl)methanone] |
| ≥ 50 | COc1ccc(C2=NN(C(=O)c3ccc(Br)o3)C(c3ccc(Cl)cc3)C2)cc1OC (stereo not shown) [Example 47, (5-bromofuran-2-yl)(5-(4-chlorophenyl)-3-(3,4-dimethoxyphenyl)-4,5-dihydro-1H-pyrazol-1-yl)methanone] |
| < 50 | COc1ccc(C2=NN(C(=O)c3ccc(Br)o3)C(c3ccccc3Cl)C2)cc1OC (stereo not shown) [Example 50, (5-bromofuran-2-yl)(5-(2-chlorophenyl)-3-(3,4-dimethoxyphenyl)-4,5-dihydro-1H-pyrazol-1-yl)methanone] |
| < 50 | COc1ccc(C2=NN(C(=O)CCCC(=O)O)C(c3ccc(C)cc3)C2)cc1OC (stereo not shown) [Example 96, 5-(3-(3,4-dimethoxyphenyl)-5-p-tolyl-4,5-dihydro-1H-pyrazol-1-yl)-5-oxopentanoic acid] |
| < 50 | COc1ccc(C2=NN(C(=O)CCC(=O)O)C(c3ccc(F)cc3)C2)cc1OC (stereo not shown) [Example 72, 4-(3-(3,4-dimethoxyphenyl)-5-(4-fluorophenyl)-4,5-dihydro-1H-pyrazol-1-yl)-4-oxobutanoic acid] |
| < 50 | COc1ccc(C2=NN(S(=O)(=O)c3ccccc3)C(c3ccccc3OC)C2)cc1OC (stereo not shown) [Example 61, 3-(3,4-dimethoxyphenyl)-5-(2-methoxyphenyl)-1-(phenylsulfonyl)-4,5-dihydro-1H-pyrazole] |
